From BindingDB's records for PubMed 37722288 (Southwest Jiaotong University)
One block for each compound: values may come before it.

Key:
[1] = target: Glycogen synthase kinase-3 beta (Homo sapiens) (UniProt P49841); assay: Inhibition of human recombinant GSK3beta
[2] = target: Glycogen synthase kinase-3 alpha (Homo sapiens, UniProt P49840); assay: Inhibition of human recombinant GSK3alpha
[3] = target: Cyclin-dependent kinase 9/cyclin T1 (Homo sapiens); assay: Inhibition of CDK9/cyclin T1 (unknown origin)

Chain of Glycogen synthase kinase-3 beta (Homo sapiens) (P49841 whole entry, looked up): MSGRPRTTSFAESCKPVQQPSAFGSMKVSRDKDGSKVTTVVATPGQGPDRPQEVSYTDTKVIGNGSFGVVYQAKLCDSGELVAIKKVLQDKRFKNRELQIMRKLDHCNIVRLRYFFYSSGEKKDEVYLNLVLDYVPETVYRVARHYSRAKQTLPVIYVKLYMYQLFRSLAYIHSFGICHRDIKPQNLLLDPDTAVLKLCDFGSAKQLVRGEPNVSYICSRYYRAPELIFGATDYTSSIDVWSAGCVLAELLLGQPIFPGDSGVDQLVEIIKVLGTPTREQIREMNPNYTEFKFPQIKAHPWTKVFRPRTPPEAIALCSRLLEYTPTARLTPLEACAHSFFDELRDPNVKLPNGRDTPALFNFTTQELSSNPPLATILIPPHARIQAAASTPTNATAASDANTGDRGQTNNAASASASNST
Chain of Glycogen synthase kinase-3 alpha (P49840 whole entry): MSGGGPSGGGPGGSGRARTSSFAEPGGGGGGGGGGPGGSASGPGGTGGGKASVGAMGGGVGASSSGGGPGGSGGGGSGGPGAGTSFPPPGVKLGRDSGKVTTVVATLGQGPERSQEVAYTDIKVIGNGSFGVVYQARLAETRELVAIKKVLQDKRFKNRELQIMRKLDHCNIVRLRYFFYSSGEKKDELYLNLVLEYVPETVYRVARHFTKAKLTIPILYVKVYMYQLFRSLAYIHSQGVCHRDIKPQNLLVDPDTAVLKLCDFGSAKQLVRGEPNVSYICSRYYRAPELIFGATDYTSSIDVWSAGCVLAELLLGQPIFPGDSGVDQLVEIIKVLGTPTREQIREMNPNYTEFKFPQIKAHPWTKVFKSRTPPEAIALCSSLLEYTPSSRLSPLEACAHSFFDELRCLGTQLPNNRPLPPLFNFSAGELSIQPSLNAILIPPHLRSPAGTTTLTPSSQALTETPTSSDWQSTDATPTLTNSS

IC50 [1]: 9.1 µM
SMILES: CCN1CCC(NC(=O)c2c(C)noc2C(C)C)CC1 [Name not given]

IC50 [2]: 2.3 µM
SMILES: COc1ncccc1C(=O)Nc1cc(S(C)(=O)=O)ccc1N1CCC(Oc2ccc(F)cc2F)CC1 [Name not given]

IC50 [3]: 5.71 µM
SMILES: COc1cc(CC(=O)Nc2cc(C3CCC3)[nH]n2)cc(OC)c1OC
